What is called IC50 is the concentration at which inhibition is half-maximal.

Active and inactive are the calls of the source. The rule behind the calls is not given here.

Data set [1] in a line: Inhibition of Plek2 in Ter119-positive mouse fetal liver erythroid progenitor cells cultured in erythropoietin containing medium assessed as decrease in terminal enucleation of erythroblasts measured by HTS assay. The format is tissue-based.
In the next data set the test system is COS-7. Put plainly: Inhibition of Plek2 in African green monkey COS-7 cells overexpressing Plek2 at 10 uM assessed as decrease in lamellipodia formation. The note with it: Chlorocebus aethiops. The format is cell-based.
For a further data set, the species on record is Homo sapiens. Put plainly: Binding affinity towards GST-tagged Plek2 (unknown origin) at 200 uM measured by isothermal calorimetry (ITC) assay relative to control. On the technique in general: In ITC the heat of successive injections is recorded.
Data set [2] in a line: Inhibition of Plek2 in Ter119-positive mouse fetal liver erythroid progenitor cells cultured in erythropoietin containing medium assessed as decrease in cell proliferation measured by HTS assay. The format is tissue-based.
Data set [3] is described as follows: Inhibition of Plek2 in Ter119-negative mouse fetal liver erythroid progenitor cells overexpressing Plek2 cultured in erythropoietin containing medium assessed as decrease in cell proliferation measured by HTS assay. The data set is classed as tissue-based.
The test system of another data set is Jurkat. Description: Effect on Plek2 cell membrane localization in human Jurkat cells overexpressing GFP-Plek2 at 100 nM measured by real-time confocal imaging analysis. The format is functional, cell-based.
The next data set has as its system Bone marrow cell. Put plainly: Inhibition of Plek2 in mouse bone marrow lineage negative cells expressing wild-type Plek2 and treated with erythropoietin at 10 uM assessed as inhibition of Akt phosphorylation measured by western blot analysis. The format is cell-based. A general note: In western blotting, separated proteins are transferred to a membrane and probed.

Data set [4] in a line: Acute toxicity in mouse assessed as drug tolerability time at 40 mg/kg, ip administered as single dose. The format is organism-based. The note with it: in vivo.
For data set [5], the system named is Mus musculus. Description: Protection against erythropoietin-induced myeloproliferation in wild type mouse assessed as reduction in leucocytosis at 40 mg/kg, ip administered every 2 days for 8 days. The format is functional, organism-based. As to conditions: time 2.0 day.
The subject of data set [6] is Mus musculus. Put plainly: Protection against erythropoietin-induced myeloproliferation in wild type mouse assessed as reduction in reticulocytosis at 40 mg/kg, ip administered every 2 days for 8 days. The data set is classed as functional, organism-based. As to conditions: time 2.0 day.
The test system of data set [7] is Mus musculus. Put plainly: Protection against erythropoietin-induced myeloproliferation in wild type mouse assessed as reduction in splenomegaly at 40 mg/kg, ip administered every 2 days for 8 days. The data set is classed as functional, organism-based. The note with it: time 2.0 day.
Data set [8] has as its system Mus musculus. Description: Protection against erythropoietin-induced myeloproliferation in wild type mouse assessed as reduction in vascular occlusions at 40 mg/kg, ip administered every 2 days for 8 days. The data set is classed as functional, organism-based. The note with it: time 2.0 day.
Data set [9] relates to Mus musculus. Description: Protection against erythropoietin-induced myeloproliferation in wild type mouse assessed as reduction in erythrocytosis in spleen red pulp at 40 mg/kg, ip administered every 2 days for 8 days. The data set is classed as functional, organism-based. As to conditions: time 2.0 day.
The subject of data set [10] is Mus musculus. Description: Protection against erythropoietin-induced myeloproliferation in wild type mouse assessed as improvement in lung vasculature at 40 mg/kg, ip administered every 2 days for 8 days. The format is functional, organism-based. The note with it: time 2.0 day.
Data set [11] in a line: Toxicity in wild type mouse assessed as hematologic abnormalities at 40 mg/kg, ip administered every 2 days for 8 days. The data set is classed as organism-based. The note with it: in vivo, 48 h, time 2 day.
The subject of data set [12] is Mus musculus. Put plainly: Protection against Jak2 V617F-konckin induced myeloproliferation in mouse assessed as normalization of white blood cell count at 25 mg/kg, ip administered once every two days. The data set is classed as functional, organism-based. The note with it: time 2.0 day.
Data set [13] deals with Mus musculus. Put plainly: Protection against Jak2 V617F-konckin induced myeloproliferation in mouse assessed as reduction in red blood cell count at 25 mg/kg, ip administered once every two days. The format is functional, organism-based. As to conditions: time 2.0 day.
In data set [14] the test system is Mus musculus. Description: Protection against Jak2 V617F-konckin induced myeloproliferation in mouse assessed as reduction in spleen size at 25 mg/kg, ip administered once every two days. The data set is classed as functional, organism-based. As to conditions: time 2.0 day.
In data set [15] the test system is Mus musculus. Description: Protection against Jak2 V617F-konckin induced myeloproliferation in mouse assessed as reduction in extramedullary erythropoiesis at 25 mg/kg, ip administered once every two days. The data set is classed as functional, organism-based. The note with it: time 2.0 day.
In data set [16] the test system is Mus musculus. Description: Protection against Jak2 V617F-konckin induced myeloproliferation in mouse assessed as reduction in vascular occlusions in lung at 25 mg/kg, ip administered once every two days. The format is functional, organism-based. The note with it: time 2.0 day.
A short description of data set [17]: Toxicity in Jak2 V617F-konckin induced myeloproliferation in mouse assessed as induction of side effects at 25 mg/kg, ip administered once every two days. As to conditions: in vivo, 48 h, time 2 day. The format is organism-based.

For `O=C(c1c[nH]c2ccccc12)C(O)C(c1ccccc1)N1CCN(CCO)CC1` (stereo unspecified), the IC50 in [1] and in data set [2] was 40 µM in each case. Also, the inhibition result in the data set on COS-7 was “Active”. Besides, the outcome in the data set listed under Homo sapiens was Active.

Consider `CN1CCN(C(c2ccc(Cl)cc2)C(O)C(=O)c2c[nH]c3ccccc23)CC1` (stereo unspecified), for which, in data set [3], the IC50 was under 10 µM. The result in the data set with Jurkat, with Mus musculus [5], in the data set with Mus musculus [6], in the data set with Mus musculus [7], with Mus musculus [8] and in the data set on Mus musculus [9] was Active. Moreover, the result with Mus musculus [10], with Mus musculus [12], in the data set with Mus musculus [13], in the data set on Mus musculus [14], with Mus musculus [15] and in the data set with Mus musculus [16] was Active. For the same compound, the inhibition entry with Bone marrow cell is “Active”. Also, the Time in data set [4] was determined as 2 days. Besides, the Activity entry in data set [11] and in data set [17] was “Non-Toxic” each time.

For the origin of these results see ChEMBL document CHEMBL5050847, “Targeting pleckstrin-2 for treating cancer” (2020).
